Measured values from US20250074919A1, “Heteroaryl compounds as inhibitors of irak4, compositions and applications thereof” (Accro Bioscience (HK) Limited, priority 2021, published 2025).
Structures can show the parent of a compound that is named as a salt. Where two headings read alike, the source gives them in different places.

Molecular target: IRAK4 (Homo sapiens (Human), UniProt Q9NWZ3)
Assay: Screening the compounds against IRAK4 with ATP (Caliper, FAM-labeled peptide)
Format: biochemical
Conditions: for IC50: read-out: IC50 (nM) (10 μM ATP); for activity, times better than that of the positive control compound CA4948: IRAK4 kinase inhibition relative to CA4948
Method: Prepare Ix kinase base buffer and stop buffer for testing kinases: (1) base buffer: 50 mM HEPES (pH 7.5), 0.0015% Brij-35; (2) stop buffer: 100 mM HEPES (pH 7.5), 0.015% Brij-35, 0.2% Coating Reagent #3, 50 mM EDTA. Then prepare compounds for testing: Dilute the compound to 50× of the final desired highest inhibitor concentration in reaction by 100% DMSO. Transfer 100 μL of this compound dilution to a well in a 96-well plate (source plate).
Serially dilute the compounds by 3-fold for a total of 10 points. Transfer 10 μL of the compound from the source plate to a new 96-well plate (intermediate plate) and add 90 μL of Ix kinase buffer. Shake the mixture on the intermediate plate for 10 min. Transfer 5 μL of each well from the 96-well intermediate plate to a 384-well plate in duplicates. Add 10 μL of 2.5× enzyme solution to each well of the 384-well assay plate and incubate at room temperature for 10 min. Add 10 μL, of 2.5×FAM-labeled peptide and ATP solution and incubate at 28° C. for a period of time. Finally stop the reaction by adding 30 μL of stop buffer and collect data on Caliper to obtain the IC50.

Sequence of IRAK4 (Q9NWZ3 whole entry): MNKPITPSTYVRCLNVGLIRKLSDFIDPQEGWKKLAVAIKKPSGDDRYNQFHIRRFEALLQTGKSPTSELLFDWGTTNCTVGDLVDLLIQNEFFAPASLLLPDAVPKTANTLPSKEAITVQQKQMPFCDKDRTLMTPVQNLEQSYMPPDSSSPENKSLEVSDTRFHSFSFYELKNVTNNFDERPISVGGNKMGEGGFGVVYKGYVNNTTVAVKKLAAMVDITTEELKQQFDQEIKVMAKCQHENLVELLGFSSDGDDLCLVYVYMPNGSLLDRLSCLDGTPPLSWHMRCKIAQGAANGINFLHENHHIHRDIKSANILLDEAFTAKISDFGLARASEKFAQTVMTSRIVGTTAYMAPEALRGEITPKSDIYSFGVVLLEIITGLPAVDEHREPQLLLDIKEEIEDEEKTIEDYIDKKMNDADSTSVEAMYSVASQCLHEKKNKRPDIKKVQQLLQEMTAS

Row | Structure (SMILES) | IC50 (IRAK4 kinase, 10 μM ATP) | IC50 | activity, times better than that of the positive control compound CA4948
1 | Cc1cc(-c2nc(NC(=O)c3cc4oc(N5CCOCC5)nc4nc3N3CC[C@@H](O)C3)co2)ccn1 [Compound A49, (R)-5-(3-Hydroxypyrrolidin-1-yl)-N-(2-(2-methylpyridin-4-yl)oxazol-4-yl)-2-morpholinooxazolo[4,5-b]pyridine-6-carboxamide] | > 6000 nM |  | 
2 | COc1ncccc1NC(=O)c1cc2oc(N3CCOCC3)nc2nc1N1CCC(OC)CC1 [Compound A50, 5-(4-Methoxypiperidin-1-yl)-N-(2-methoxypyridin-3-yl)-2-morpholinooxazolo[4,5-b]pyridine-6-carboxamide] | 98 nM |  | 
3 | COC1CCN(c2nc3nc(N4CCNCC4)oc3cc2C(=O)Nc2cccc(-c3cnn(C)c3)n2)CC1 [Compound A51, 5-(4-Methoxypiperidin-1-yl)-N-(6-(1-methyl-1H-pyrazol-4-yl)pyridin-2-yl)-2-(piperazin-1-yl)oxazolo[4,5-b]pyridine-6-carboxamide Hydrochloride] |  | 7 nM | 
4 | COC1CCN(c2nc3nc(N4CCN(C)CC4)oc3cc2C(=O)Nc2cccc(-c3cnn(C)c3)n2)CC1 [Compound A52, 5-(4-Methoxypiperidin-1-yl)-N-(6-(1-methyl-1H-pyrazol-4-yl)pyridin-2-yl)-2-(4-methylpiperazin-1-yl)oxazolo[4,5-b]pyridine-6-carboxamide] | 5.1 nM |  | 
5 | COc1nc2nc(N3CCOCC3)oc2cc1C(=O)Nc1cccc(-c2cnn(C)c2)n1 [Compound A54, 5-Methoxy-N-(6-(1-methyl-1H-pyrazol-4-yl)pyridin-2-yl)-2-morpholinooxazolo[4,5-b]pyridine-6-carboxamide] | 21 nM |  | more than 5 times
6 | Cn1cc(-c2cccc(NC(=O)c3cc4oc(N5CCNCC5)nc4nc3N3CCC4(CCO4)CC3)n2)cn1 [Compound A55, N-(6-(1-Methyl-1H-pyrazol-4-yl)pyridin-2-yl)-2-(piperazin-1-yl)-5-(1-oxa-7-azaspiro[3.5]nonan-7-yl)oxazolo[4,5-b]pyridine-6-carboxamide] | 5.9 nM |  | 
7 | Cn1cc(-c2cccc(NC(=O)c3cc4oc(N5CCNCC5)nc4nc3N3CCC(C)(O)CC3)n2)cn1 [Compound A56, 5-(4-Hydroxy-4-methylpiperidin-1-yl)-N-(6-(1-methyl-1H-pyrazol-4-yl)pyridin-2-yl)-2-(piperazin-1-yl)oxazolo[4,5-b]pyridine-6-carboxamide] | 7.8 nM |  | 
8 | COC1CCN(c2nc3nc(N4CCN(CCO)CC4)oc3cc2C(=O)Nc2cccc(-c3cnn(C)c3)n2)CC1 [Compound A57, 2-(4-(2-Hydroxyethyl)piperazin-1-yl)-5-(4-methoxypiperidin-1-yl)-N-(6-(1-methyl-1H-pyrazol-4-yl)pyridin-2-yl)oxazolo[4,5-b]pyridine-6-carboxamide] |  | 5.1 nM | 
9 | CN1CCN(c2nc3nc(N4CCC5(CCO5)CC4)c(C(=O)Nc4cccc(-c5cnn(C)c5)n4)cc3o2)CC1 [Compound A58, N-(6-(1-Methyl-1H-pyrazol-4-yl)pyridin-2-yl)-2-(4-methylpiperazin-1-yl)-5-(1-oxa-7-azaspiro[3.5]nonan-7-yl)oxazolo[4,5-b]pyridine-6-carboxamide] | 4.9 nM |  | 
10 | CN1CCN(c2nc3nc(N4CCC(C)(O)CC4)c(C(=O)Nc4cccc(-c5cnn(C)c5)n4)cc3o2)CC1 [Compound A59, 5-(4-Hydroxy-4-methylpiperidin-1-yl)-N-(6-(1-methyl-1H-pyrazol-4-yl)pyridin-2-yl)-2-(4-methylpiperazin-1-yl)oxazolo[4,5-b]pyridine-6-carboxamide] | 6.6 nM |  | 
11 | COC1CCN(c2nc3c(cc2C(=O)Nc2cccc(-c4cnn(C)c4)n2)CC(C)(C)O3)CC1 [Compound B1, 6-(4-Methoxypiperidin-1-yl)-2,2-dimethyl-N-(6-(1-methyl-1H-pyrazol-4-yl)pyridin-2-yl)-2,3-dihydrofuro[2,3-b]pyridine-5-carboxamide] | 4.5 nM |  | more than 25 times
12 | CN1CCN(c2nc3c(cc2C(=O)Nc2cccc(-c4cnn(C)c4)n2)CC(C)(C)O3)CC1 [Compound B2, 2,2-Dimethyl-N-(6-(1-methyl-1H-pyrazol-4-yl)pyridin-2-yl)-6-(4-methylpiperazin-1-yl)-2,3-dihydrofuro[2,3-b]pyridine-5-carboxamide] | 54 nM |  | 
13 | Cn1cc(-c2cccc(NC(=O)c3cc4c(nc3N3CCN(CCO)CC3)OC(C)(C)C4)n2)cn1 [Compound B3, 6-(4-(2-Hydroxyethyl)piperazin-1-yl)-2,2-dimethyl-N-(6-(1-methyl-1H-pyrazol-4-yl)pyridin-2-yl)-2,3-dihydrofuro[2,3-b]pyridine-5-carboxamide] | 31 nM |  | 
14 | Cn1cc(-c2cccc(NC(=O)c3cc4c(nc3N3CCN(C5CC5)CC3)OC(C)(C)C4)n2)cn1 [Compound B4, 6-(4-Cyclopropylpiperazin-1-yl)-2,2-dimethyl-N-(6-(1-methyl-1H-pyrazol-4-yl)pyridin-2-yl)-2,3-dihydrofuro[2,3-b]pyridine-5-carboxamide] | 7.5 nM |  | 
15 | Cn1cc(-c2cccc(NC(=O)c3cc4c(nc3N3CCC5(CCO5)CC3)OC(C)(C)C4)n2)cn1 [Compound B6, 2,2-Dimethyl-N-(6-(1-methyl-1H-pyrazol-4-yl)pyridin-2-yl)-6-(1-oxa-7-azaspiro[3.5]nonan-7-yl)-2,3-dihydrofuro[2,3-b]pyridine-5-carboxamide] | 5.9 nM |  | 
16 | Cn1cc(-c2cccc(NC(=O)c3cc4c(nc3N3CCC(C)(O)CC3)OC(C)(C)C4)n2)cn1 [Compound B7, 6-(4-Hydroxy-4-methylpiperidin-1-yl)-2,2-dimethyl-N-(6-(1-methyl-1H-pyrazol-4-yl)pyridin-2-yl)-2,3-dihydrofuro[2,3-b]pyridine-5-carboxamide] | 11 nM |  | 
17 | Cn1cc(-c2cccc(NC(=O)c3cc4c(nc3N3CCNC5(CC5)C3)OC(C)(C)C4)n2)cn1 [Compound B8, 2,2-Dimethyl-N-(6-(1-methyl-1H-pyrazol-4-yl)pyridin-2-yl)-6-(4,7-diazaspiro[2.5]octan-7-yl)-2,3-dihydrofuro[2,3-b]pyridine-5-carboxamide] | 224 nM |  | 
18 | CC1(C)Cc2cc(C(=O)Nc3cccn([C@H]4C[C@H]4F)c3=O)c(N3CCC(O)CC3)nc2O1 [Compound B9, N-(1-((1S,2R)-2-Fluorocyclopropyl)-2-oxo-1,2-dihydropyridin-3-yl)-6-(4-hydroxypiperidin-1-yl)-2,2-dimethyl-2,3-dihydrofuro[2,3-b]pyridine-5-carboxamide] | 69 nM |  | 
19 | CC1(C)Cc2cc(C(=O)Nc3cccn(C4CC4)c3=O)c(N3CCC(O)CC3)nc2O1 [Compound B10, N-(1-Cyclopropyl-2-oxo-1,2-dihydropyridin-3-yl)-6-(4-hydroxypiperidin-1-yl)-2,2-dimethyl-2,3-dihydrofuro[2,3-b]pyridine-5-carboxamide] |  | 479 nM | 
20 | COc1nc2c(cc1C(=O)Nc1cccc(-c3cnn(C)c3)n1)CC(C)(C)O2 [Compound B11, 6-Methoxy-2,2-dimethyl-N-(6-(1-methyl-1H-pyrazol-4-yl)pyridin-2-yl)-2,3-dihydrofuro[2,3-b]pyridine-5-carboxamide] | 50 nM |  | 
21 | CCOc1nc2c(cc1C(=O)Nc1cccc(-c3cnn(C)c3)n1)CC(C)(C)O2 [Compound B12, 6-Ethoxy-2,2-dimethyl-N-(6-(1-methyl-1H-pyrazol-4-yl)pyridin-2-yl)-2,3-dihydrofuro[2,3-b]pyridine-5-carboxamide] | 9.2 nM |  | 
22 | CC(C)Oc1nc2c(cc1C(=O)Nc1cccc(-c3cnn(C)c3)n1)CC(C)(C)O2 [Compound B13, 6-Isopropoxy-2,2-dimethyl-N-(6-(1-methyl-1H-pyrazol-4-yl)pyridin-2-yl)-2,3-dihydrofuro[2,3-b]pyridine-5-carboxamide] | 6.2 nM |  | 
23 | Cn1cc(-c2cccc(NC(=O)c3cc4c(nc3OC3CCC3)OC(C)(C)C4)n2)cn1 [Compound B14, 6-Cyclobutoxy-2,2-dimethyl-N-(6-(1-methyl-1H-pyrazol-4-yl)pyridin-2-yl)-2,3-dihydrofuro[2,3-b]pyridine-5-carboxamide] | 6.1 nM |  | 
24 | Cn1cc(-c2cccc(NC(=O)c3cc4c(nc3OC3CCCC3)OC(C)(C)C4)n2)cn1 [Compound B15, 6-(Cyclopentyloxy)-2,2-dimethyl-N-(6-(1-methyl-1H-pyrazol-4-yl)pyridin-2-yl)-2,3-dihydrofuro[2,3-b]pyridine-5-carboxamide] | 5.6 nM |  | 
25 | Cn1cc(-c2cccc(NC(=O)c3cc4c(nc3OC3COC3)OC(C)(C)C4)n2)cn1 [Compound B16, 2,2-Dimethyl-N-(6-(1-methyl-1H-pyrazol-4-yl)pyridin-2-yl)-6-(oxetan-3-yloxy)-2,3-dihydrofuro[2,3-b]pyridine-5-carboxamide] | 11 nM |  | 
26 | Cn1cc(-c2cccc(NC(=O)c3cc4c(nc3O[C@H]3CCOC3)OC(C)(C)C4)n2)cn1 [Compound B17, (S)-2,2-Dimethyl-N-(6-(1-methyl-1H-pyrazol-4-yl)pyridin-2-yl)-6-((tetrahydrofuran-3-yl)oxy)-2,3-dihydrofuro[2,3-b]pyridine-5-carboxamide] | 6.5 nM |  | 
27 | Cn1cc(-c2cccc(NC(=O)c3cc4c(nc3OC(F)F)OC(C)(C)C4)n2)cn1 [Compound B20, 6-(Difluoromethoxy)-2,2-dimethyl-N-(6-(1-methyl-1H-pyrazol-4-yl)pyridin-2-yl)-2,3-dihydrofuro[2,3-b]pyridine-5-carboxamide] | 27 nM |  | 
